Source: patent US8093274B2, “Inhibitors of protein prenyltransferases” (The Regents of the University of California, priority 2006, dated 2012)

Experiments:
[1] = target: GGTase I (substrate K-Ras4B) (Homo sapiens, UniProt P49354+P53609); test: GGTase I filter-binding assay with K-Ras4B as substrate; format: biochemical; details: 50 μM compound; DMSO = 100%; smaller numbers indicate better inhibition; first number of pair; read-out: % activity of GGTase I for protein K-Ras4B in the presence of the compound
Method: (§1) The pilot library was screened for inhibitors of protein geranylgeranyltransferase type I. Protein prenyltransferase assays were carried out by using filter binding. Two different substrates, RhoA and K-Ras4B, were used for the assay. RhoA ends with the CaaL motif and is an exclusive substrate for GGTase I, while K-Ras4B ends with the CaaX motif and is modified by both GGTase I and FTase.
(§2) The % activity of GGTase I was determined as follows: a working solution that contained each compound in DMSO at the concentration of 1 mM was prepared. The working solution was added to GGTase I reaction mixture so that the final concentration of the compound is 50 μM. GGTase I activity was assayed by incubating [^3H]GGPP with K-Ras4B or RhoA protein in the presence of GGTase I and examining radioactivity incorporated into the substrate protein by spotting onto a filter paper. After washing with TCA, ethanol and acetone, the radioactivity retained on the filter was determined by the use of a scintillation counter. GGTase I activity in the presence of DMSO was taken as a 100% value and the activity in the presence of the compound was shown as percent activity compared with the 100% value. […] For 6-aryl-4-mercapto-N-sulfonyl-piperidine-3-carboxylic acid 11 the 4-mercapto substituent appeared critical to endowing GGTase inhibitory activity. […] 4-Chlorobenzylthio substituent was the next best; 12 compounds out of 21 containing the 4-chlorobenzylthio moiety were active. 4-Benzylthio substituent was also good; 7 piperidines out of 21 bearing 4-benzylthio group were active. […] 19 imines (C15>C12=C41>C40>C01=C11>C05=C10=C30=C35=C37=C38>C02, C03, C04, C06, C39=C43) out of 21 appeared in the GGTIs. […] This corresponds to 47 6-aryl-4-mercapto-N-sulfonyl-piperidine-3-carboxylic acids out of 357 compounds.
(§3) A collection of 138 heterocycles was screened for their ability to inhibit the activity of human GGTase-I to geranylgeranylate K-Ras4B or RhoA. Purified GGTase-1 was incubated with its substrate protein K-Ras4B or RhoA, [^3H]GGPP, and the 138 compounds. After 30 min, the degree of incorporation of tritiated geranylgeranyl groups was measured using a scintillation counter.

[2] = target: GGTase I (substrate RhoA) (Homo sapiens, UniProt P49354+P53609); test: GGTase I filter-binding assay with RhoA as substrate; format: biochemical; details: 50 μM compound; DMSO = 100%; smaller numbers indicate better inhibition; second number of pair; read-out: % activity of GGTase I for protein RhoA in the presence of the compound
Method: as §1, §2, §3
The GGTase-I assay was carried out using RhoA as a substrate protein, GGTase-I (JENA Bioscience) and [3H]geranylgeranyl pyrophosphate. Incubation was for 30 min at 37 C. GGTase-H (or RabGGTase) assay was carried out using YPT1 as a substrate protein, GGTase-H (Calbiochem, San Diego, Calif.) plus REP1 (Calbiochem) and [3H]geranylgeranyl pyrophosphate. Incubation was for 30 min at 37 C. FIGS. 20D-20F show the three dimensional structure of GGTase I (D), FTsse (E) and GGTase II (F) which can be obtained from X-ray diffraction studies of protein crystals.

Row | activity at 50 µM [1] | activity at 50 µM [2] | SMILES
1 | 23.4% | 6.1% | COc1ccc([C@H]2C(C(=O)O)=C[C@@H](C(C)(C)C)N2S(=O)(=O)c2ccc(C)cc2)cc1OC
2 | 10.6% | 8.8% | Cc1ccccc1S(=O)(=O)N1C(c2ccc(Cl)cc2)CC=C(C(=O)O)[C@@H]1c1cccc(Br)c1 (stereo partly drawn)
3 | 15.6% | 12.4% | Cc1cccc([C@H]2C(C(=O)O)=CCC(c3ccc(Cl)cc3)N2S(=O)(=O)c2ccccc2C)c1 (stereo partly drawn)
4 | 12.6% | 10.3% | Cc1ccc(S(=O)(=O)N2C(c3ccc(Cl)c(Cl)c3)CC=C(C(=O)O)[C@@H]2c2cccc(C)c2)cc1 (stereo partly drawn)
5 | 5.4% | 3% | Cc1ccccc1S(=O)(=O)N1C(c2ccc(Cl)cc2)CC=C(C(=O)O)[C@@H]1c1cccc(F)c1 (stereo partly drawn)
6 | 8.4% | 4.1% | Cc1ccccc1S(=O)(=O)N1C(c2ccc(Cl)cc2)CC=C(C(=O)O)[C@@H]1c1ccccc1F (stereo partly drawn)
7 | 15.6% | 12.6% | Cc1ccccc1S(=O)(=O)N1C(c2ccc(Cl)cc2)CC=C(C(=O)O)[C@@H]1c1ccc(F)cc1 (stereo partly drawn)
8 | 17.7% | 12.1% | Cc1ccc(S(=O)(=O)N2C(c3ccc(Cl)c(Cl)c3)CC=C(C(=O)O)[C@@H]2c2ccc(Cl)cc2)cc1 (stereo partly drawn)
9 | 12.4% | 15.6% | Cc1ccc([C@H]2C(C(=O)O)=CCC(c3ccc(Cl)c(Cl)c3)N2S(=O)(=O)c2ccc(C)cc2)cc1 (stereo partly drawn)
10 | 9.4% | 3.7% | Cc1ccc(S(=O)(=O)N2C(c3cccc(Br)c3)CC=C(C(=O)O)[C@@H]2c2cccc(Br)c2)cc1 (stereo partly drawn)
11 | 11% | 7% | Cc1ccc(S(=O)(=O)N2C(c3cccc(Cl)c3)CC=C(C(=O)O)[C@@H]2c2cccc(Br)c2)cc1 (stereo partly drawn)
12 | 9.8% | 7.9% | Cc1ccc(S(=O)(=O)N2C(c3cccc(Br)c3)CC=C(C(=O)O)[C@@H]2c2cccc(Cl)c2)cc1 (stereo partly drawn)
13 | 43.7% | 6% | Cc1ccc(S(=O)(=O)N2C(c3cccc(Cl)c3)CC=C(C(=O)O)[C@@H]2c2cccc(Cl)c2)cc1 (stereo partly drawn)
14 | 16.1% | 14.3% | Cc1ccc(S(=O)(=O)N2C(c3cccc(Br)c3)CC=C(C(=O)O)[C@@H]2c2cccc(C)c2)cc1 (stereo partly drawn)
15 | 17% | 15% | Cc1ccc(S(=O)(=O)N2C(c3cccc(Br)c3)CC=C(C(=O)O)[C@@H]2c2cccc(F)c2)cc1 (stereo partly drawn)
16 | 35.2% | 19.4% | Cc1ccc(S(=O)(=O)N2C(c3cccc(Br)c3)CC=C(C(=O)O)[C@@H]2c2ccccc2)cc1 (stereo partly drawn)
17 | 8.6% | 5% | O=C(O)C1=CCC(c2ccc(Cl)cc2)N(S(=O)(=O)c2ccc(Cl)cc2)[C@H]1c1cccc(Br)c1 (stereo partly drawn)
18 | 8.4% | 7.4% | Cc1ccc(C2CC=C(C(=O)O)[C@H](c3cccc(Br)c3)N2S(=O)(=O)c2ccc(Cl)cc2)cc1 (stereo partly drawn)
19 | 21.4% | 9.6% | C=CCS[C@H]1[C@@H](C(=O)O)[C@H](c2ccc(Cl)c(Cl)c2)N(S(=O)(=O)c2ccc(C)cc2)[C@@H]1CCCC
20 | 27.2% | 7.6% | CC[C@@H]1[C@@H](SCCC(=O)OC(C)(C)C)[C@@H](C(=O)O)[C@H](c2ccc(Cl)c(Cl)c2)N1S(=O)(=O)c1ccc(C)cc1
21 | 10.9% | 1.1% | CCC[C@@H]1[C@@H](Sc2ccc(OC)cc2)[C@@H](C(=O)O)[C@H](c2ccc(Cl)c(Cl)c2)N1S(=O)(=O)c1ccc(C)cc1
22 | 15.1% | 6.8% | C=CCS[C@H]1[C@@H](C(=O)O)[C@H](c2ccc(Cl)c(Cl)c2)N(S(=O)(=O)c2ccc(C)cc2)[C@@H]1CCCCCC
23 | 16.1% | 7.3% | Cc1ccc(S(=O)(=O)N2[C@H](CC3CCCC3)[C@@H](SCCC(=O)OC(C)(C)C)[C@@H](C(=O)O)[C@@H]2c2ccc(Cl)c(Cl)c2)cc1

Row | activity at 50 µM [1] | activity at 50 µM [2] | SMILES
24 | 12.1% | 8.6% | C=CCS[C@H]1[C@@H](C(=O)O)[C@H](c2ccc(Cl)c(Cl)c2)N(S(=O)(=O)c2ccc(C)cc2)[C@@H]1CC1CCCC1
25 | 28.4% | 8.9% | C=CCS[C@H]1[C@@H](C(=O)O)[C@H](c2ccc(Cl)cc2)N(S(=O)(=O)c2ccccc2C)[C@@H]1CCC
26 | 10% | 7.8% | Cc1ccccc1S(=O)(=O)N1[C@H](CC2CCCC2)[C@@H](SCCC(=O)OC(C)(C)C)[C@@H](C(=O)O)[C@@H]1c1ccc(Cl)cc1
27 | 23.1% | 8.4% | C=CCS[C@H]1[C@@H](C(=O)O)[C@H](c2ccc(Cl)cc2)N(S(=O)(=O)c2ccccc2C)[C@@H]1CCCC
28 | 24.9% | 6% | C=CCS[C@H]1[C@@H](C(=O)O)[C@H](c2ccc(Cl)cc2)N(S(=O)(=O)c2ccccc2C)[C@@H]1CCCCCC
29 | 22.4% | 4.9% | C=CCS[C@H]1[C@@H](C(=O)O)[C@H](c2ccc(Cl)cc2)N(S(=O)(=O)c2ccccc2C)[C@@H]1CC1CCCC1
30 | 21.7% | 9.2% | CCC[C@@H]1[C@@H](SCCC(=O)OC(C)(C)C)[C@@H](C(=O)O)[C@H](c2ccc(Cl)cc2)N1S(=O)(=O)c1ccc(Cl)cc1
31 | 48.7% | 8% | COc1ccc(S[C@H]2[C@@H](C(=O)O)[C@H](c3ccc(Cl)cc3)N(S(=O)(=O)c3ccc(Cl)cc3)[C@@H]2C(C)C)cc1
32 | 22.5% | 9.8% | CC(C)(C)OC(=O)CCS[C@H]1[C@@H](C(=O)O)[C@H](c2ccc(Cl)cc2)N(S(=O)(=O)c2ccc(Cl)cc2)[C@@H]1CC1CCCC1
33 | 30.4% | 9.7% | CC(C)(C)OC(=O)CCS[C@H]1[C@@H](C(=O)O)[C@H](c2ccc(Cl)cc2)N(S(=O)(=O)c2ccccc2)[C@@H]1CC1CCCC1
34 | 23.1% | 9.3% | C=CCS[C@H]1[C@@H](C(=O)O)[C@H](c2ccc(C#N)cc2)N(S(=O)(=O)c2ccc(C)cc2)[C@@H]1C(C)C
35 | 21.5% | 6% | C=CCS[C@H]1[C@@H](C(=O)O)[C@H](c2ccc(C#N)cc2)N(S(=O)(=O)c2ccc(C)cc2)[C@@H]1CCCCCC
36 | 9.8% | 7.5% | C=CCS[C@H]1[C@@H](C(=O)O)[C@H](c2ccc(Br)cc2)N(S(=O)(=O)c2ccc(C)cc2)[C@@H]1CCC
37 | 15.5% | 5.5% | C=CCS[C@H]1[C@@H](C(=O)O)[C@H](c2ccc(Br)cc2)N(S(=O)(=O)c2ccc(C)cc2)[C@@H]1CCCCCC
38 | 20.6% | 5.6% | Cc1ccc(S(=O)(=O)N2[C@H](CC3CCCC3)[C@@H](SCCC(=O)OC(C)(C)C)[C@@H](C(=O)O)[C@@H]2c2cccc(Cl)c2)cc1
39 | 25.5% | 6.5% | CC[C@@H]1[C@@H](Sc2ccc(OC)cc2)[C@@H](C(=O)O)[C@H](c2cccc(Cl)c2)N1S(=O)(=O)c1ccc(C)cc1
40 | 22.3% | 8.1% | C=CCS[C@H]1[C@@H](C(=O)O)[C@H](c2ccc(OC)c(OC)c2)N(S(=O)(=O)c2ccc(C)cc2)[C@@H]1CCCCCC
41 | 25.2% | 7.7% | C=CCS[C@H]1[C@@H](C(=O)O)[C@H](c2ccc(Cl)cc2)N(S(=O)(=O)c2ccc(C)cc2)[C@@H]1CC1CCCC1
42 | 31.7% | 6.1% | C=CCS[C@H]1[C@@H](C(=O)O)[C@H](c2ccc(C(C)C)cc2)N(S(=O)(=O)c2ccc(C)cc2)[C@@H]1CC1CCCC1
43 | 14.7% | 4.1% | CCC[C@@H]1[C@@H](Sc2ccc(C)cc2)[C@@H](C(=O)O)[C@H](c2cccc(F)c2)N1S(=O)(=O)c1ccc(C)cc1
44 | 23.5% | 7.1% | CCCCCS[C@H]1[C@@H](C(=O)O)[C@H](c2cccc(F)c2)N(S(=O)(=O)c2ccc(C)cc2)[C@@H]1CCCC
45 | 31.5% | 7.1% | CCCC[C@@H]1[C@@H](Sc2ccc(C)cc2)[C@@H](C(=O)O)[C@H](c2cccc(F)c2)N1S(=O)(=O)c1ccc(C)cc1
